{"source": "patent EP2292587A1", "about": "“PHARMACEUTICAL COMPOSITION FOR INHIBITING THE TRANSCRIPTION FACTOR INDUCIBLE BY HYPOXIA, MODULATORS OF PATHOLOGICAL PROCESSES OF ANGIOGENESIS, ONCOGENESIS, INFLAMMATION, APOPTOSIS, AND CELLULAR THERAPY” (Fundacion De La Comunidad Valenciana Centro De …, priority 2008, dated 2009)", "key": {"PHD3 and VEGF": {"system": "PHD3 and VEGF", "experiment": "qPCR of PHD3 and VEGF in primary culture of epNSCs", "assay_type": "cell-based, rat", "conditions": "500 nM, hypoxia (1% O2), 6 to 24 hours", "from_the_text": "Adult Wistar rats of between 2 to 3 months of age were used (the animals were handled following the mode of action which complies with section 2.1 (acceptable methods of euthanasia) of the document prepared for the DGXI of the European Commission regarding the protection of animals used for experimentation and other scientific purposes (No. L358, ISSN 0378-6978) and after the approval of the protocols by the Committee for Animal Care and Wellbeing of the Centro de Investigación Principe Felipe, Valencia, SPAIN). Once the animals were sacrificed, the dorsal part of the spinal cord was dissected and the tissue was maintained, at 4°C, in washing medium (DPBS-glucose) for its processing. To reduce the percentage of connective tissue cells the meninges as well as the most superficial blood vessels were removed. […]\nTotal RNA was isolated using the commercial kit RNAeasy (Qiagen) and following the manufacturer's instructions. […] The quantitative polymerase chain reaction (qPCR) was carried out using Taqman probes and primers designed by Applied Biosystem for rVEGF (Ref Rn00582935_m1), rPHD3 (Ref Rn00571341_m1) and rGAPDH (Ref Rn01775763_g1). […] The expression levels of VEGF and PHD3 were expressed as the increase of Ct with respect to the expression levels of GAPDH (constitutive expression gene): Ct (ΔCt)=Ct (VEGF or PHD3)-Ct (GAPDH). […]"}, "ATR": {"system": "ATR", "experiment": "activation kinetics of ATR (Western blot), HCT116/p53+/+", "assay_type": "cell-based, human", "conditions": "0.5 µM, after 1 hour", "from_the_text": "To determine the degree of involvement of p53 in the possible effects caused by FM19G11, a HCT116 colon cancer cell line with expression of p53 and the same HCT116 line in which p53 was inactivated by homologous recombination were used (Bunz, F, Dutriaux, A, Lengauer, C, Waldman, T, Zhou, S, Brown, JP et al., (1998) Requirement for p53 and p21 to sustain G2 arrest after DNA damage. Science 282: 1497-501; Bunz, F, Hwang, PM, Torrance, C, Waldman, T, Zhang, Y, Dillehay, L et al., (1999) Disruption of p53 in human cancer cells alters the responses to therapeutic agents. J Clin Invest 104: 263-9.). The HCT116/p53^+/+ and HCT116/p53^-/- cells were exposed to FM19G11 (0.5 µM) at different times, the phosphorylation (activation) pattern of the ATR protein and of p53 which can be phosphorylated by ATR (Tibbetts, RS, Brumbaugh, KM, Williams, JM, Sarkaria, JN, Cliby, WA, Shieh, SY et al., (1999) A role for ATR in the DNA damage-induced phosphorylation of p53. Genes Dev 13: 152-7.), in p53-proficient HCT116 cells, as well as ATR in p53-deficient cells being analyzed (Figure 23). […] This quick activation of ATR coincides with that of p53 in HCT116/p53^+/+ cells after 1 hour of treatment with FM19G11 (0.5 µM), but the activation of p53 remains virtually on the expression of cells without drug, for the different times analyzed."}}}
{"smiles": "Cc1ccc(C(=O)COC(=O)c2cccc(NC(=O)c3ccc([N+](=O)[O-])cc3[N+](=O)[O-])c2)cc1", "note": "[FM19G11, 2-oxo-2-(p-tolyl)ethyl 3-((2,4-dinitro)benzamido)benzoate]", "values": [{"measurement": "increase of both PHD3 and VEGF (mRNA)", "setting": "PHD3 and VEGF", "value": "significantly inhibited"}, {"measurement": "phosphorylation of ATR", "setting": "ATR", "value": "quick increase"}]}
